Patent publication US9707229B2, “Compositions and methods for treating an infection” (CMPD LICENSING, LLC, priority 2015, dated 2017)

What was measured:
Format in all cases: cell-based
Bacteroides fragilis = experiment: Expected efficacy of antibiotic agents; details: Gram: anaer
Clostridium difficile = experiment: Expected efficacy of antibiotic agents; details: Gram: anaer
Clostridium perfringens = details: expected efficacy; Gram: anaer
Chlamydia pneumoniae = experiment: Expected efficacy of antibiotic agents; details: Gram: n/a
Chlamydia psittaci = details: expected efficacy; Gram: n/a
Chlamydia trachomatis = experiment: Expected efficacy of antibiotic agents; details: Gram: n/a
Mycoplasma pneumoniae = experiment: Expected efficacy of antibiotic agents; details: Gram: n/a
Acinetobacter baumannii = experiment: Expected efficacy of antibiotic agents; details: Gram: neg
[1] = system: Acinetobacter calcoaceticus; experiment: Expected efficacy of antibiotic agents; details: Gram: neg
Acinetobacter lwoffii = experiment: Expected efficacy of antibiotic agents; details: Gram: neg
Bartonella bacilliformis = experiment: Expected efficacy of antibiotic agents; details: Gram: neg
Bordetella pertussis = experiment: Expected efficacy of antibiotic agents; details: Gram: neg
Brucella species = details: expected efficacy; Gram: neg
Campylobacter jejuni = experiment: Expected efficacy of antibiotic agents; details: Gram: neg
Citrobacter diversus = experiment: Expected efficacy of antibiotic agents; details: Gram: neg
Citrobacter freundii = experiment: Expected efficacy of antibiotic agents; details: Gram: neg
Enterobacter aerogenes = experiment: Expected efficacy of antibiotic agents; details: Gram: neg
Enterobacter cloacae = experiment: Expected efficacy of antibiotic agents; details: Gram: neg
Enterobacter sakazakii = experiment: Expected efficacy of antibiotic agents; details: Gram: neg
Escherichia coli = experiment: Expected efficacy of antibiotic agents; details: Gram: neg
Francisella tularensis = details: expected efficacy; Gram: neg
Haemophilus influenzae = experiment: Expected efficacy of antibiotic agents; details: Gram: neg
[2] = system: Klebsiella (Calymmatobacterium) granulomatis; experiment: Expected efficacy of antibiotic agents; details: Gram: neg
Klebsiella oxytoca = experiment: Expected efficacy of antibiotic agents; details: Gram: neg
Klebsiella pneumoniae = experiment: Expected efficacy of antibiotic agents; details: Gram: neg
Legionella pneumophila = details: expected efficacy; Gram: neg
Moraxella catarrhalis = experiment: Expected efficacy of antibiotic agents; details: Gram: neg
Morganella morganii = experiment: Expected efficacy of antibiotic agents; details: Gram: neg
Neisseria meningitidis = experiment: Expected efficacy of antibiotic agents; details: Gram: neg
Proteus mirabilis = experiment: Expected efficacy of antibiotic agents; details: Gram: neg
Proteus vulgaris = experiment: Expected efficacy of antibiotic agents; details: Gram: neg
Providencia rettgeri = experiment: Expected efficacy of antibiotic agents; details: Gram: neg
Providencia stuartii = experiment: Expected efficacy of antibiotic agents; details: Gram: neg
Pseudomonas aeruginosa = experiment: Expected efficacy of antibiotic agents; details: Gram: neg
Pseudomonas fluorescens = experiment: Expected efficacy of antibiotic agents; details: Gram: neg
Rickettsiae = details: expected efficacy; Gram: neg
Serratia marcescens = experiment: Expected efficacy of antibiotic agents; details: Gram: neg
Vibrio cholerae = experiment: Expected efficacy of antibiotic agents; details: Gram: neg
Corynebacterium jeikeium = experiment: Expected efficacy of antibiotic agents; details: Gram: pos
Enterococcus faecalis = experiment: Expected efficacy of antibiotic agents; details: Gram: pos
Enterococcus faecium = experiment: Expected efficacy of antibiotic agents; details: Gram: pos
[3] = system: Methicillin resistant staph aureus (MRSA); experiment: Expected efficacy of antibiotic agents; details: Gram: pos
[4] = system: Staphylococcus aureus (MSSA); experiment: Expected efficacy of antibiotic agents; details: Gram: pos
[5] = system: Staphylococcus epidermidis; experiment: Expected efficacy of antibiotic agents; details: Gram: pos
Streptococcus agalactiae = experiment: Expected efficacy of antibiotic agents; details: Gram: pos
Streptococcus pneumoniae = experiment: Expected efficacy of antibiotic agents; details: Gram: pos
Streptococcus pyogenes = experiment: Expected efficacy of antibiotic agents; details: Gram: pos
[6] = system: Haemophilus parainfluenzae; experiment: Expected efficacy of antibiotic agents; details: Gram: neg
Neisseria gonorrhoeae = experiment: Expected efficacy of antibiotic agents; details: Gram: neg
Salmonella typhi = experiment: Expected efficacy of antibiotic agents; details: Gram: neg
Shigella boydii = experiment: Expected efficacy of antibiotic agents; details: Gram: neg
Shigella dysenteriae = experiment: Expected efficacy of antibiotic agents; details: Gram: neg
Shigella flexneri = experiment: Expected efficacy of antibiotic agents; details: Gram: neg
Shigella sonnei = experiment: Expected efficacy of antibiotic agents; details: Gram: neg
Yersinia pestis = details: expected efficacy; Gram: neg
Candida species = experiment: Expected efficacy of antifungal agents
Haemophilus ducreyi = experiment: Expected efficacy of antibiotic agents; details: Gram: neg
[7] = system: Corynebacterium urealyticum; experiment: Expected efficacy of antibiotic agents; details: Gram: pos
Diphtheroids = experiment: Expected efficacy of antibiotic agents; details: Gram: pos
Peptostreptococcus = experiment: Expected efficacy of antibiotic agents; details: Gram: pos
[8] = system: Viridans group streptococci; experiment: Expected efficacy of antibiotic agents; details: Gram: pos

Compound: CC[C@H]1OC(=O)[C@H](C)[C@@H](O[C@H]2C[C@@](C)(OC)[C@@H](O)[C@H](C)O2)[C@H](C)[C@@H](O[C@@H]2O[C@H](C)C[C@H](N(C)C)[C@H]2O)[C@](C)(O)C[C@@H](C)CN(C)[C@H](C)[C@@H](O)[C@]1(C)O [Azithromycin]
- efficacy against Bacteroides fragilis (Bacteroides fragilis): no
- efficacy against Clostridium difficile (Clostridium difficile): no
- efficacy against Clostridium perfringens (Clostridium perfringens): no
- efficacy against Chlamydia pneumoniae (Chlamydia pneumoniae): yes
- efficacy against Chlamydia psittaci (Chlamydia psittaci): yes
- efficacy against Chlamydia trachomatis (Chlamydia trachomatis): yes
- efficacy against Mycoplasma pneumoniae (Mycoplasma pneumoniae): yes
- efficacy against Acinetobacter baumannii (Acinetobacter baumannii): no
- efficacy against Acinetobacter calcoaceticus [1]: no
- efficacy against Acinetobacter lwoffii (Acinetobacter lwoffii): no
- efficacy against Bartonella bacilliformis (Bartonella bacilliformis): yes
- efficacy against Bordetella pertussis (Bordetella pertussis): yes
- efficacy against Brucella species (Brucella species): no
- efficacy against Campylobacter jejuni (Campylobacter jejuni): yes
- efficacy against Citrobacter diversus (Citrobacter diversus): no
- efficacy against Citrobacter freundii (Citrobacter freundii): no
- efficacy against Enterobacter aerogenes (Enterobacter aerogenes): no
- efficacy against Enterobacter cloacae (Enterobacter cloacae): no
- efficacy against Enterobacter sakazakii (Enterobacter sakazakii): no
- efficacy against Escherichia coli (Escherichia coli): no
- efficacy against Francisella tularensis (Francisella tularensis): no
- efficacy against Haemophilus influenzae (Haemophilus influenzae): yes
- efficacy against Klebsiella (Calymmatobacterium) granulomatis [2]: no
- efficacy against Klebsiella oxytoca (Klebsiella oxytoca): no
- efficacy against Klebsiella pneumoniae (Klebsiella pneumoniae): no
- efficacy against Legionella pneumophila (Legionella pneumophila): yes
- efficacy against Moraxella catarrhalis (Moraxella catarrhalis): yes
- efficacy against Morganella morganii (Morganella morganii): no
- efficacy against Neisseria meningitidis (Neisseria meningitidis): yes
- efficacy against Proteus mirabilis (Proteus mirabilis): no
- efficacy against Proteus vulgaris (Proteus vulgaris): no
- efficacy against Providencia rettgeri (Providencia rettgeri): no
- efficacy against Providencia stuartii (Providencia stuartii): no
- efficacy against Pseudomonas aeruginosa (Pseudomonas aeruginosa): no
- efficacy against Pseudomonas fluorescens (Pseudomonas fluorescens): no
- efficacy against Rickettsiae (Rickettsiae): yes
- efficacy against Serratia marcescens (Serratia marcescens): no
- efficacy against Vibrio cholerae (Vibrio cholerae): yes
- efficacy against Corynebacterium jeikeium (Corynebacterium jeikeium): no
- efficacy against Enterococcus faecalis (Enterococcus faecalis): no
- efficacy against Enterococcus faecium (Enterococcus faecium): no
- efficacy against Methicillin resistant staph aureus (MRSA) [3]: no
- efficacy against Staphylococcus aureus (MSSA) [4]: yes
- efficacy against Staphylococcus epidermidis [5]: yes
- efficacy against Streptococcus agalactiae (Streptococcus agalactiae): yes
- efficacy against Streptococcus pneumoniae (Streptococcus pneumoniae): yes
- efficacy against Streptococcus pyogenes (Streptococcus pyogenes): yes

Compound: O=C(O)c1cn(C2CC2)c2cc(N3CCNCC3)c(F)cc2c1=O [Ciprofloxacin]
- efficacy against Bacteroides fragilis (Bacteroides fragilis): no
- efficacy against Chlamydia pneumoniae (Chlamydia pneumoniae): yes
- efficacy against Bartonella bacilliformis (Bartonella bacilliformis): yes
- efficacy against Campylobacter jejuni (Campylobacter jejuni): yes
- efficacy against Citrobacter diversus (Citrobacter diversus): yes
- efficacy against Citrobacter freundii (Citrobacter freundii): yes
- efficacy against Enterobacter aerogenes (Enterobacter aerogenes): yes
- efficacy against Escherichia coli (Escherichia coli): yes
- efficacy against Francisella tularensis (Francisella tularensis): yes
- efficacy against Haemophilus influenzae (Haemophilus influenzae): yes
- efficacy against Haemophilus parainfluenzae [6]: yes
- efficacy against Klebsiella oxytoca (Klebsiella oxytoca): yes
- efficacy against Klebsiella pneumoniae (Klebsiella pneumoniae): yes
- efficacy against Legionella pneumophila (Legionella pneumophila): yes
- efficacy against Moraxella catarrhalis (Moraxella catarrhalis): yes
- efficacy against Morganella morganii (Morganella morganii): yes
- efficacy against Neisseria gonorrhoeae (Neisseria gonorrhoeae): yes
- efficacy against Neisseria meningitidis (Neisseria meningitidis): yes
- efficacy against Proteus mirabilis (Proteus mirabilis): yes
- efficacy against Proteus vulgaris (Proteus vulgaris): yes
- efficacy against Providencia rettgeri (Providencia rettgeri): yes
- efficacy against Providencia stuartii (Providencia stuartii): yes
- efficacy against Pseudomonas aeruginosa (Pseudomonas aeruginosa): yes
- efficacy against Pseudomonas fluorescens (Pseudomonas fluorescens): yes
- efficacy against Rickettsiae (Rickettsiae): yes
- efficacy against Salmonella typhi (Salmonella typhi): yes
- efficacy against Serratia marcescens (Serratia marcescens): yes
- efficacy against Shigella boydii (Shigella boydii): yes
- efficacy against Shigella dysenteriae (Shigella dysenteriae): yes
- efficacy against Shigella flexneri (Shigella flexneri): yes
- efficacy against Shigella sonnei (Shigella sonnei): yes
- efficacy against Vibrio cholerae (Vibrio cholerae): yes
- efficacy against Yersinia pestis (Yersinia pestis): yes
- efficacy against Corynebacterium jeikeium (Corynebacterium jeikeium): no
- efficacy against Enterococcus faecium (Enterococcus faecium): no
- efficacy against Methicillin resistant staph aureus (MRSA) [3]: no
- efficacy against Staphylococcus epidermidis [5]: yes

Compound: C[C@@H]1[C@H](O)[C@@H](C)/C=C/C=C/CC/C=C/C=C/C=C/C=C/C(O[C@H]2O[C@H](C)[C@@H](O)[C@H](N)[C@@H]2O)CC2O[C@](O)(CC(O)C(O)CCC(O)CC(O)CC(O)CC(=O)O[C@H]1C)CC(O)C2C(=O)O (stereo partly shown) [Nystatin]
- efficacy against Candida species (Candida species): yes

Compound: NC[C@H]1O[C@H](O[C@H]2[C@H](O)[C@@H](O[C@H]3O[C@H](CO)[C@@H](O)[C@H](N)[C@H]3O)[C@H](N)C[C@@H]2N)[C@H](N)C[C@@H]1O [Tobramycin]
- efficacy against Bacteroides fragilis (Bacteroides fragilis): no
- efficacy against Clostridium difficile (Clostridium difficile): no
- efficacy against Clostridium perfringens (Clostridium perfringens): no
- efficacy against Chlamydia pneumoniae (Chlamydia pneumoniae): no
- efficacy against Chlamydia psittaci (Chlamydia psittaci): no
- efficacy against Chlamydia trachomatis (Chlamydia trachomatis): no
- efficacy against Mycoplasma pneumoniae (Mycoplasma pneumoniae): no
- efficacy against Acinetobacter baumannii (Acinetobacter baumannii): no
- efficacy against Acinetobacter calcoaceticus [1]: no
- efficacy against Acinetobacter lwoffii (Acinetobacter lwoffii): no
- efficacy against Bordetella pertussis (Bordetella pertussis): no
- efficacy against Campylobacter jejuni (Campylobacter jejuni): yes
- efficacy against Citrobacter diversus (Citrobacter diversus): yes
- efficacy against Citrobacter freundii (Citrobacter freundii): yes
- efficacy against Enterobacter aerogenes (Enterobacter aerogenes): yes
- efficacy against Enterobacter cloacae (Enterobacter cloacae): yes
- efficacy against Enterobacter sakazakii (Enterobacter sakazakii): yes
- efficacy against Escherichia coli (Escherichia coli): yes
- efficacy against Haemophilus ducreyi (Haemophilus ducreyi): yes
- efficacy against Haemophilus influenzae (Haemophilus influenzae): yes
- efficacy against Klebsiella (Calymmatobacterium) granulomatis [2]: yes
- efficacy against Klebsiella oxytoca (Klebsiella oxytoca): yes
- efficacy against Klebsiella pneumoniae (Klebsiella pneumoniae): yes
- efficacy against Legionella pneumophila (Legionella pneumophila): no
- efficacy against Moraxella catarrhalis (Moraxella catarrhalis): yes
- efficacy against Neisseria gonorrhoeae (Neisseria gonorrhoeae): no
- efficacy against Neisseria meningitidis (Neisseria meningitidis): no
- efficacy against Proteus mirabilis (Proteus mirabilis): yes
- efficacy against Proteus vulgaris (Proteus vulgaris): yes
- efficacy against Pseudomonas aeruginosa (Pseudomonas aeruginosa): yes
- efficacy against Pseudomonas fluorescens (Pseudomonas fluorescens): yes
- efficacy against Serratia marcescens (Serratia marcescens): yes
- efficacy against Shigella boydii (Shigella boydii): yes
- efficacy against Shigella dysenteriae (Shigella dysenteriae): yes
- efficacy against Shigella flexneri (Shigella flexneri): yes
- efficacy against Shigella sonnei (Shigella sonnei): yes
- efficacy against Vibrio cholerae (Vibrio cholerae): no
- efficacy against Yersinia pestis (Yersinia pestis): yes
- efficacy against Corynebacterium jeikeium (Corynebacterium jeikeium): no
- efficacy against Corynebacterium urealyticum [7]: no
- efficacy against Diphtheroids (Diphtheroids): no
- efficacy against Enterococcus faecalis (Enterococcus faecalis): no
- efficacy against Enterococcus faecium (Enterococcus faecium): no
- efficacy against Methicillin resistant staph aureus (MRSA) [3]: no
- efficacy against Peptostreptococcus (Peptostreptococcus): no
- efficacy against Staphylococcus aureus (MSSA) [4]: no
- efficacy against Staphylococcus epidermidis [5]: no
- efficacy against Streptococcus agalactiae (Streptococcus agalactiae): no
- efficacy against Streptococcus pneumoniae (Streptococcus pneumoniae): no
- efficacy against Streptococcus pyogenes (Streptococcus pyogenes): no
- efficacy against Viridans group streptococci [8]: no
